Paper PMC6856162 (2019)

Columns and labels:
[1] = test system: (5′CAG/3′GAC)x6; AAx6; AA × 6 (RNA, repeat) GGGAGAGGGUUUAAUCAGCAGCAGCAGCAGCAGUACGAAAGUACAGCAGCAGCAGCAGCAGAUUGGAUCCGCAAGG; assay: UV melting; conditions: Na+ 10 mM Na2HPO4 + 0.1 M NaCl (melting buffer not given; assumed same as CD/ITC buffer, which also has 50 mM EDTA); derived from two Tm (51.8, 57.9); D/N 2.0; per base
[2] = test system: (5′CAG/3′GAC)x6; AAx6; AA × 6 (RNA, repeat) GGGAGAGGGUUUAAUCAGCAGCAGCAGCAGCAGUACGAAAGUACAGCAGCAGCAGCAGCAGAUUGGAUCCGCAAGG; assay: ITC; conditions: 0.1 M NaCl; 10 mM Na2HPO4, EDTA, pH 7.2; two-site fit; nanomolar range stated
[3] = test system: (5′CAG/3′GAC)x6; AAx6; AA × 6 (RNA, repeat) GGGAGAGGGUUUAAUCAGCAGCAGCAGCAGCAGUACGAAAGUACAGCAGCAGCAGCAGCAGAUUGGAUCCGCAAGG; assay: fluorescence titration; conditions: room temperature; two-site fit
[4] = test system: 5′r(CCGCAGCGG)3′ (RNA, mismatch bulge abasic) CCGCAGCGG; assay: 1D and 2D NMR titration; conditions: 298 K; D/N 0.0 to 2.0

dTm [1]: 6.1 °C | binding [2]: yes | binding [3]: yes | binding [4]: yes
Compound: Cc1cc2ccccc2nc1-c1ccccc1F
